Results from patent publication EP0102404A1, “Novel polycyclic fused pyrazole compounds useful as antiinflammatory agents and preparation thereof” (STERLING DRUG INC., priority 1982, dated 1984).

Assays:
Format in all cases: in vivo
Mature female rats = experiment: Endocrine profile (thymus, adrenal, body weight, food consumption) after oral medication for 2 weeks; details: compared with the controls
Procedure: The test procedures used to determine the biological activities of the compounds of the invention were carried out as follows: • Endocrine Profile: Mature female rats with an average body weight of 202 g and a body weight range of 15 g or less were medicated orally with test compound for 2 weeks. The test compound was prepared as a solution or suspension in 1% gum tragacanth or 0.75% methyl cellulose. On the day following the last medication, the rats were killed and the thymus and adrenal of each rat were removed, cleaned, and weighed. Body weights and food consumptions were also recorded.

Male rats = experiment: Anti-inflammatory activity (a-tocopherol pouch test)
Procedure: Male rats which weighed 120 g were selected for testing. A rapid subcutaneous injection of 25 mL of air was made between the scapulae of each rat. […] The test compound was administered in daily oral doses for 7 days beginning on the day of pouch formation. The compound to be tested was suspended in 1% gum tragacanth. Twenty-four hours after the last medication, the pouches were dissected free, and the fluid volume was measured.

[1] = test system: Mature male rats, bilaterally adrenalectomized; experiment: Glycogenic activity (liver glycogen deposition test); details: for liver glycogen deposition: adrenalectomized male rats, vehicle 1.75 + 0.04 mg/g
Source text: Glycogenic Activity: Mature male rats were bilaterally adrenalectomized 5 days prior to the test. These rats were medicated orally with the test compound for 5 days. Seven hours after the last medication, the rats (which have been fasted overnight) were anesthetized with sodium pentobarbital and a portion of one lobe of the liver was removed and frozen on dry ice for subsequent glycogen determination.

Structure (SMILES) | reduction in adrenal weight (Mature female rats; 100 mg/kg) | reduction in body weight gain (Mature female rats; 100 mg/kg) | reduction in thymus weight (Mature female rats; 100 mg/kg) | activity in the a-tocopherol pouch test (Male rats; 100 mg/kg, daily oral doses for 7 days, male rats) | reduction in adrenal weight (Mature female rats; 5 mg/kg) | reduction in body weight gain (Mature female rats; 5 mg/kg) | reduction in weight of the thymus (Mature female rats; 5 mg/kg) | ED50 (Male rats; Rattus norvegicus, 168 h, daily oral doses for 7 days, male rats, inhibition of liquid exudate) | anti-inflammatory activity by the a-tocopherol pouch test (Male rats; rats, result in words) | liver glycogen deposition ([1]; 9 mg/kg/day x 5, oral) | liver glycogen deposition ([1]; 27 mg/kg/day x 5, oral) | oral glucocorticoid activity by the liver glycogen deposition test ([1]; rats, oral, result in words)
CCOC(=O)C1(C(=O)OCC)CCC=C2C1CCC1=Cc3c(cnn3-c3ccc(F)cc3)CC12C (stereo not drawn) [Compound II (R = CH2CH3), Diethyl 8-(4-fluorophenyl)-2,3,4,4a,5,6,11,11a-octahydro-11a-methyl-8H-phenanthro[2,3-c]pyrazole-4,4-dicarboxylate] | 47% | 186% | 80% | inactive |  |  |  |  |  |  |  | 
CC(=O)C1CC=C2C(CCC3=Cc4c(cnn4-c4ccc(F)cc4)CC32C)C1C(C)=O (single isomer, unassigned) [Compound I (R = CH3), 1,1'-[8-(4-Fluorophenyl)-2,3,4,4a,5,6,11,11a-octahydro-11a-methyl-8H-phenanthro[2,3-c]pyrazole-3,4-diyl]bis[ethanone]] |  |  |  |  | 40% | 80% | 59% | 23 mg/kg | anti-inflammatory activity | 9.42 + 0.65 mg/g of tissue | 25.48 + 3.39 mg/g of tissue | oral glucocorticoid activity
